Patent publication US8101666B2, “Methods and compounds for detection of medical disorders” (Aposense Ltd., priority 2004, dated 2012)

Assays:
[1] = tested on: apoptotic cells in tumor, murine melanoma-derived B16-F10 cells; test: Targeting of DC in vivo to apoptotic cells in B16-F10 murine melanoma tumor, fluorescent microscopy; design: species or system mice; details: 2 mg/mouse i.v., 2 h; for uptake by the apoptotic or the viable tumor cells: data not shown
Experimental: Tumors, and especially aggressive malignancies such as melanoma are characterized, in addition to the abnormal tissue proliferation, also by marked apoptosis of tumor cells. The performance of DC in selective targeting of these apoptotic cells within the tumor was therefore examined. Mice (c57/black; 8 weeks old male mice) were injected subcutaneously bilaterally, in the flank, with murine melanoma-derived B16-F10 cells (ATCC CRL-6475; 10^5 cells/mice in a volume of 100 μl). Prior to injection, the cell line was maintained in culture in Dulbecco's modified Eagle's medium (DMEM), supplemented with 4 mM of L-glutamine; 100 units/ml of penicillin; 100 μg/ml of streptomycin; 12.5 units/ml of nystatin and 10% of fetal calf serum (FCS). Tumors were allowed to grow for 14 days, by which they reached a diameter of 5-7 mm.
Dansyl-cysteine (DC), or the control compounds dansyl-glycine or dansyl-serine (2 mg/mouse each in NaPpi buffer, pH. 7.40) was injected intravenously. Two hours later, mice were scarified and the tumors, as well as other organs were taken, and immediately frozen in liquid nitrogen. Frozen sections were then prepared from each of the organs. Uptake of the examined compounds by the tumors or other organs was assessed by fluorescent microscopy.

[2] = tested on: degenerating neuronal cells; test: Selective binding of NST729 in vivo to degenerating neuronal cells in a mouse model of motor neuron disease (SOD G93A); details: SOD G93A transgenic mice, 1.4 mg/animal i.v., 2 h
Experimental: Studies were carried out in transgenic mice for SOD with point mutation of G93A. NST729 (1.4 mg / animal in 200 μl 50% Cremophor/ trizma-base 0.1M was injected i.v. After two hours, mice were anesthetized and brain +spinal cord were removed into liquid nitrogen for further analysis. Frozen sections of 10 μm thickness were prepared. The slices were visualized by fluorescent microscopy.

amyloid plaques = test: Detection of amyloid plaques in APP Swedish TG2576 mice, fluorescent microscopy of brain sections; format: in vivo; details: i.v., 2 h
Experimental: Studies were carried out in one and a half year old APP Swedish TG2576 mice, which have a mutation of APP. BDA (which lacks a free thiol residue) and NST729 were injected i.v., two hours later, mice were anesthetized and brains were removed into liquid nitrogen for further analysis. Frozen section of 10 μm thickness each were prepared, and visualized by fluorescent microscopy.

[3] = tested on: brain cells undergoing apoptosis following middle cerebral artery (MCA) cauterization; test: Selective binding of NST729 to cells undergoing cell death following MCA occlusion, fluorescent microscopy of brain sections; format: in vivo; details: Balb/C mice
Experimental: Studies were carried out in adult male Balb/C mice, weighing 20-25 g. Ischemia was induced by unilateral cauterization of the middle cerebral artery. Briefly, mice were anesthetized, and ischemia was induced through a subtemporal approach. The craniotomy was performed at the level where the MCA crossed the lateral olfactory tract. […] All visible branches also were occluded to prevent blood supply by passing. The incision sites were clipped closed and the animal was injected with analgesics and allowed to recover.

[4] = tested on: cells undergoing apoptosis, induced by cerebral ischemia due to middle cerebral artery (MCA) occlusion; test: Selective targeting of NST739 to cells undergoing cell death following MCA occlusion, fluorescent microscopy of brain sections; format: in vivo; details: Balb/C mice
Experimental: An in vivo experiment was conducted in mice, in order to show the performance of NST739 in selective binding to cells undergoing apoptosis, induced by cerebral ischemia due to middle cerebral artery (MCA) occlusion.
Studies were carried out in adult male Balb/C mice, weighing 20-25 g. Cerebral ischemia was induced by unilateral cauterization of the middle cerebral artery. Briefly, mice were anesthetized, and ischemia was induced through a subtemporal approach. The craniotomy was performed at the level where the MCA crossed the lateral olfactory tract. […] All visible branches also where occluded to prevent blood supply by passing. The incision sites were clipped closed and the animal was injected with analgesics and allowed to recover. Twenty-two hours after the middle cerebral artery (MCA) cauterization, NST739 or the control compound BDA (1.4 mg/animal each) were injected i.v. At 24 h from the induction of the injury, and two hours after administration of NST739, mice were anesthetized, sacrificed, and brains were removed into liquid nitrogen for further analysis. […] Frozen sections were prepared. The slices were visualized by fluorescent microscopy.

CN(C)c1cccc2c(S(=O)(=O)N[C@@H](CS)C(=O)O)cccc12 [DC, dansyl-cysteine]
binding to tumor cells undergoing cell death ([1]; c57/black mice, B16-F10 tumors): Extensive binding
staining of viable tumor cells ([1]; c57/black mice, B16-F10 tumors): remain unstained
binding to normal, viable small intestine tissue ([1]; same animal): lack of binding

CN(C)c1cccc2c(S(=O)(=O)NCCS)cccc12 [NST729, n-(2-mercaptoethyl)-dansylamide]
uptake by degenerating neuronal cells and axons (motor nuclei of the pons) [2]: marked uptake
uptake by other cells in the same region and cells in other brain regions [2]: did not manifest such uptake
staining of surrounding brain cells (amyloid plaques; APP Swedish TG2576 mice): remained unstained
intensity of binding to the plaques compared with BDA (fluorescence intensity) (amyloid plaques; APP Swedish TG2576 mice, versus control BDA): markedly higher
visualization of amyloid plaques (amyloid plaques; one and a half year old APP Swedish TG2576 mice): strongly visualized
binding to cells in the damaged area ([3]; 1.4 mg i.v. 22 h after MCA cauterization, brains removed 2 h later): extensive binding
number of apoptotic events detected compared with BDA ([3]; MCA cauterization, i.v., 2 h, versus control BDA): significantly higher
level of binding (fluorescence intensity) compared with BDA ([3]; MCA cauterization, i.v., 2 h, versus control BDA lacking the thiol group): markedly higher

CN(C)c1cccc2c(S(=O)(=O)N(CCS)CCCF)cccc12 [NST739, N-(3-fluoropropyl)-N-(2-thioethyl)-dansylamide]
binding to cells in the damaged area ([4]; 1.4 mg/animal i.v. 22 h after MCA cauterization, brains removed 2 h later): extensive binding
staining of cells in other brain regions ([4]; MCA cauterization, 1.4 mg/animal i.v., 2 h): remained unstained
level of binding (fluorescence) compared with BDA ([4]; MCA cauterization, 1.4 mg/animal i.v., 2 h, versus control BDA lacking the thiol group): significantly higher

CN(C)c1cccc2c(S(=O)(=O)NCC(=O)O)cccc12 [dansyl-glycine, reference compound]
uptake by the apoptotic or the viable tumor cells ([1]; B16-F10 tumors): did not manifest a significant uptake

CN(C)c1cccc2c(S(=O)(=O)N[C@@H](CO)C(=O)O)cccc12 [dansyl-serine, reference compound]
uptake by the apoptotic or the viable tumor cells ([1]; B16-F10 tumors): did not manifest a significant uptake
